Assays:
[1] = test system: MOG35-55-induced experimental autoimmune encephalomyelitis (EAE) mouse model; assay: MOG35-55-induced EAE mouse model, clinical scoring and incidence; assay type: in vivo, C57BL/6 mice; settings: for reduction rate in AUC for clinical scoring: 14 days, vs vehicle control
[2] = test system: IL-6 secretion by astrocytes; assay: IL-6 release caused by NMO-IgG in astrocytes (ELISA); assay type: cell-based, rat; settings: 24 h, NMO-IgG 250 μg/mL; for IL-6 inhibition rate, Mean: 5 μM
Protocol: The compound was dissolved in DMSO to prepare a compound stock solution. The compound stock solution was then serially diluted in a gradient using DMSO to prepare a series of 1000× test compound solutions. These 1000× test compound solutions were further diluted at a ratio of 1:100 with cell culture medium to prepare a series of 10× test compound solutions. Finally, according to the experimental well plate loading design, a corresponding volume of 10× solution was added to each well, with two duplicate wells for each drug concentration. In the experiment, the test solution (i.e., 1× solution) had varying final concentrations of compound I, specifically 20, 2.222, 0.247, and 0.027 μM; the concentration of Meprednisone compound (i.e., 1× solution) was 30 μM; the concentration of BAY 11-7082 (i.e., 1× solution) was 5 μM; the final DMSO concentration in each well was 0.1%. DMSO without compound was added to blank control wells, with a final concentration of 0.1%.
1) Extraction and separation of primary astrocytes: A mixed glial cell culture medium was prepared from the cerebral cortex of 1-day-old newborn rats. After euthanizing the newborn rats, they were immersed in alcohol. Their skin was cut, the brains were removed, and the cerebral cortex was isolated. The tissues were then ground to remove the connective tissue, and the mixed glial cells were sieved through a 70 µm cell strainer. These cells were then seeded into a cell culture plate coated with poly-L-lysine. The culture medium was DMEM, containing 10% heat-inactivated fetal bovine serum, 100 U/mL penicillin, and […]. After about 12 days of in vitro culture, the cells reached confluence. Microglia, endothelial cells, and oligodendrocytes were removed from the mixed glial cells by vibratory shaking. […] 2) Culture of astrocytes: The isolated astrocytes were cultured in a 37° C., 5% CO2 incubator. The culture medium was changed every 3 to 4 days. The astrocytes could also be digested using trypsin (0.25%) and then frozen in liquid nitrogen for future use.
Human NMO-IgG was isolated from a sterile-filtered serum pool (AQP4-IgG-positive NMOSD) using a HiTrap Protein G-HP column (GE Healthcare). The serum samples were diluted at a ratio of 1:1 with binding buffer, and after packing the purification column with binding buffer, the serum sample was added. The column was subsequently washed with binding buffer again and the antibodies were eluted according to the instructions. Finally, the antibodies were concentrated on an Amicon Ultra-4 centrifugal filter (millipore) with a 10,000 MW cutoff. The concentrated immunoglobulin was filtered through a 0.22 µm filter. The protein concentration of the concentrate was determined using the BCA method and stored at −80° C. The total IgG extracted from the serum of NMOSD patients was NMO-IgG (containing AQP4-IgG), and the cells were stimulated at a protein concentration of 250 μg/mL during the experiment.
Astrocytes were cultured or revived until day 2 and then seeded into a 24-well plate at a density of 1.5×10^5 cells per well. The test compounds, including compound I, Meprednisone, and BAY11-7082, were pre-incubated with the cells for 30 minutes at the concentrations previously described. Subsequently, in each group, the cells continued to be stimulated with NMO-IgG at a final working concentration of 250 μg/mL for 24 hours to induce astrocyte damage. Normal human Control-IgG (CON-IgG) stimulation at a final working concentration of 250 μg/mL was used as a negative control.
After 24 hours of NMO-IgG stimulation of cells, the supernatant was collected. IL-6 levels were detected using an enzyme-linked immunosorbent assay (ELISA) following the instructions of the IL-6 ELISA kit (R&D Systems, USA, #RD6000B). The absorbance (OD values) of the samples in each group was measured, and the concentration of IL-6 in each experimental group was calculated through standard curve fitting. […]

rat primary astrocytes = assay: Cell viability (CCK-8) in NMO-IgG induced astrocyte injury model; assay type: cell-based; settings: NMO-IgG 250 μg/mL, 24 h

CCCCCCCCc1ccc(CCC(N)(CO)CO)cc1 [Fingolimod, reference compound]
reduction rate in AUC for clinical scoring ([1]; 0.5 mg/kg QD oral): 49% | EAE clinical scoring, Mean ([1]; G4, 0.5 mg/kg QD oral, day 0): 0.00 | incidence of EAE ([1]; G4, 0.5 mg/kg QD oral, day 0): 0% | EAE clinical scoring, Mean ([1]; G4, 0.5 mg/kg QD oral, day 2): 0.00 | incidence of EAE ([1]; G4, 0.5 mg/kg QD oral, day 2): 0% | EAE clinical scoring, Mean ([1]; G4, 0.5 mg/kg QD oral, day 4): 0.00 | incidence of EAE ([1]; G4, 0.5 mg/kg QD oral, day 4): 0% | EAE clinical scoring, Mean ([1]; G4, 0.5 mg/kg QD oral, day 7): 0.00 | incidence of EAE ([1]; G4, 0.5 mg/kg QD oral, day 7): 0% | EAE clinical scoring, Mean ([1]; G4, 0.5 mg/kg QD oral, day 9): 0.00 | incidence of EAE ([1]; G4, 0.5 mg/kg QD oral, day 9): 0% | EAE clinical scoring, Mean ([1]; G4, 0.5 mg/kg QD oral, day 11): 0.00 | incidence of EAE ([1]; G4, 0.5 mg/kg QD oral, day 11): 0% | EAE clinical scoring, Mean ([1]; G4, 0.5 mg/kg QD oral, day 12): 0.00 | incidence of EAE ([1]; G4, 0.5 mg/kg QD oral, day 12): 0% | EAE clinical scoring, Mean ([1]; G4, 0.5 mg/kg QD oral, day 13): 0.20 | incidence of EAE ([1]; G4, 0.5 mg/kg QD oral, day 13): 20% | EAE clinical scoring, Mean ([1]; G4, 0.5 mg/kg QD oral, day 14): 0.70 | incidence of EAE ([1]; G4, 0.5 mg/kg QD oral, day 14): 60% | EAE clinical scoring, Mean ([1]; G4, 0.5 mg/kg QD oral, day 15): 1.30 | incidence of EAE ([1]; G4, 0.5 mg/kg QD oral, day 15): 80% | EAE clinical scoring, Mean ([1]; G4, 0.5 mg/kg QD oral, day 16): 1.70 | incidence of EAE ([1]; G4, 0.5 mg/kg QD oral, day 16): 80% | EAE clinical scoring, Mean ([1]; G4, 0.5 mg/kg QD oral, day 17): 1.70 | incidence of EAE ([1]; G4, 0.5 mg/kg QD oral, day 17): 80% | EAE clinical scoring, Mean ([1]; G4, 0.5 mg/kg QD oral, day 18): 1.40 | incidence of EAE ([1]; G4, 0.5 mg/kg QD oral, day 18): 70% | EAE clinical scoring, Mean ([1]; G4, 0.5 mg/kg QD oral, day 19): 1.30 | incidence of EAE ([1]; G4, 0.5 mg/kg QD oral, day 19): 70% | EAE clinical scoring, Mean ([1]; G4, 0.5 mg/kg QD oral, day 20): 1.00 | incidence of EAE ([1]; G4, 0.5 mg/kg QD oral, day 20): 60% | EAE clinical scoring, Mean ([1]; G4, 0.5 mg/kg QD oral, day 21): 0.90 | incidence of EAE ([1]; G4, 0.5 mg/kg QD oral, day 21): 50% | EAE clinical scoring, Mean ([1]; G4, 0.5 mg/kg QD oral, day 22): 0.80 | incidence of EAE ([1]; G4, 0.5 mg/kg QD oral, day 22): 50% | EAE clinical scoring, Mean ([1]; G4, 0.5 mg/kg QD oral, day 23): 0.70 | incidence of EAE ([1]; G4, 0.5 mg/kg QD oral, day 23): 40% | EAE clinical scoring, Mean ([1]; G4, 0.5 mg/kg QD oral, day 24): 0.50 | incidence of EAE ([1]; G4, 0.5 mg/kg QD oral, day 24): 20% | EAE clinical scoring, Mean ([1]; G4, 0.5 mg/kg QD oral, day 25): 0.50 | incidence of EAE ([1]; G4, 0.5 mg/kg QD oral, day 25): 20% | EAE clinical scoring, Mean ([1]; G4, 0.5 mg/kg QD oral, day 26): 0.50 | incidence of EAE ([1]; G4, 0.5 mg/kg QD oral, day 26): 20% | EAE clinical scoring, Mean ([1]; G4, 0.5 mg/kg QD oral, day 27): 0.50 | incidence of EAE ([1]; G4, 0.5 mg/kg QD oral, day 27): 20%

C[C@H]1C[C@H]2[C@@H]3CCC4=CC(=O)C=C[C@]4(C)[C@H]3C(=O)C[C@]2(C)[C@@]1(O)C(=O)CO [Meprednisone, reference compound]
inhibition at 30 µM ([2]; Rattus norvegicus, Astrocyte, 30 μM, read-out: IL-6 inhibition rate, Mean): ~74.8% | viability at 30 µM (rat primary astrocytes; Rattus norvegicus, Astrocyte, 30 μM, read-out: Cell viability percentage, Mean): 81.7%

Cc1ccc(S(=O)(=O)/C=C/C#N)cc1 [BAY 11-7082, BAY11-7082, reference compound]
IL-6 inhibition rate, Mean [2]: 104.2% | IL-6 inhibition rate, Mean ([2]; listed as BAY compound): approximately 104.2% | Cell viability percentage, Mean (rat primary astrocytes; 5 μM): 39.5%

C[C@@H]1C[C@H]2[C@@H]3CCC4=CC(=O)C=C[C@]4(C)[C@@]3(F)[C@@H](O)C[C@]2(C)[C@@]1(O)C(=O)CO [Dexamethasone, reference compound]
reduction rate in AUC for clinical scoring ([1]; 1 mg/kg QD oral): 65% | incidence of EAE ([1]; G3, 1 mg/kg PO QD, day 0): 0% | incidence of EAE ([1]; G3, 1 mg/kg PO QD, day 2): 0% | incidence of EAE ([1]; G3, 1 mg/kg PO QD, day 4): 0% | incidence of EAE ([1]; G3, 1 mg/kg PO QD, day 7): 0% | incidence of EAE ([1]; G3, 1 mg/kg PO QD, day 9): 0% | incidence of EAE ([1]; G3, 1 mg/kg PO QD, day 11): 0% | incidence of EAE ([1]; G3, 1 mg/kg PO QD, day 12): 10% | incidence of EAE ([1]; G3, 1 mg/kg PO QD, day 13): 20% | incidence of EAE ([1]; G3, 1 mg/kg PO QD, day 14): 60% | incidence of EAE ([1]; G3, 1 mg/kg PO QD, day 15): 60% | incidence of EAE ([1]; G3, 1 mg/kg PO QD, day 16): 60% | incidence of EAE ([1]; G3, 1 mg/kg PO QD, day 17): 50% | incidence of EAE ([1]; G3, 1 mg/kg PO QD, day 18): 50% | incidence of EAE ([1]; G3, 1 mg/kg PO QD, day 19): 50% | incidence of EAE ([1]; G3, 1 mg/kg PO QD, day 20): 50% | incidence of EAE ([1]; G3, 1 mg/kg PO QD, day 21): 50% | incidence of EAE ([1]; G3, 1 mg/kg PO QD, day 22): 40% | incidence of EAE ([1]; G3, 1 mg/kg PO QD, day 23): 30% | incidence of EAE ([1]; G3, 1 mg/kg PO QD, day 24): 30% | incidence of EAE ([1]; G3, 1 mg/kg PO QD, day 25): 30% | incidence of EAE ([1]; G3, 1 mg/kg PO QD, day 26): 30% | incidence of EAE ([1]; G3, 1 mg/kg PO QD, day 27): 30% | EAE clinical scoring, Mean ([1]; G3, 1 mg/kg QD oral, day 0): 0.00 | EAE clinical scoring, Mean ([1]; G3, 1 mg/kg QD oral, day 2): 0.00 | EAE clinical scoring, Mean ([1]; G3, 1 mg/kg QD oral, day 4): 0.00 | EAE clinical scoring, Mean ([1]; G3, 1 mg/kg QD oral, day 7): 0.00 | EAE clinical scoring, Mean ([1]; G3, 1 mg/kg QD oral, day 9): 0.00 | EAE clinical scoring, Mean ([1]; G3, 1 mg/kg QD oral, day 11): 0.00 | EAE clinical scoring, Mean ([1]; G3, 1 mg/kg QD oral, day 12): 0.10 | EAE clinical scoring, Mean ([1]; G3, 1 mg/kg QD oral, day 13): 0.20 | EAE clinical scoring, Mean ([1]; G3, 1 mg/kg QD oral, day 14): 0.70 | EAE clinical scoring, Mean ([1]; G3, 1 mg/kg QD oral, day 15): 1.30 | EAE clinical scoring, Mean ([1]; G3, 1 mg/kg QD oral, day 16): 1.70 | EAE clinical scoring, Mean ([1]; G3, 1 mg/kg QD oral, day 17): 1.70 | EAE clinical scoring, Mean ([1]; G3, 1 mg/kg QD oral, day 18): 1.40 | EAE clinical scoring, Mean ([1]; G3, 1 mg/kg QD oral, day 19): 1.30 | EAE clinical scoring, Mean ([1]; G3, 1 mg/kg QD oral, day 20): 1.00 | EAE clinical scoring, Mean ([1]; G3, 1 mg/kg QD oral, day 21): 0.90 | EAE clinical scoring, Mean ([1]; G3, 1 mg/kg QD oral, day 22): 0.80 | EAE clinical scoring, Mean ([1]; G3, 1 mg/kg QD oral, day 23): 0.70 | EAE clinical scoring, Mean ([1]; G3, 1 mg/kg QD oral, day 24): 0.30 | EAE clinical scoring, Mean ([1]; G3, 1 mg/kg QD oral, day 25): 0.30 | EAE clinical scoring, Mean ([1]; G3, 1 mg/kg QD oral, day 26): 0.30 | EAE clinical scoring, Mean ([1]; G3, 1 mg/kg QD oral, day 27): 0.30
